Measured values published in patent publication US20260297060A1, “COMPOUNDS FOR THE DEGRADATION OF MUTANT BRAF” (C4 THERAPEUTICS, INC., priority 2023, published 2026).
Like-named read-outs stand apart in the source and are kept apart here.

Key:
[1] = biological target: T1, BRAF V600E (Homo sapiens, UniProt P15056+Q96SW2, V600E); assay: BRAF V600E HiBiT Degradation Assay; type: cell-based
T1 construct: knock-in of the HiBiT tag to the endogenous BRAF V600E locus; host or cells: A375.10 (A375 clonal line, CRISPR HiBiT knock-in at the endogenous BRAF V600E locus)
T1 sequence (P15056 whole entry V600E): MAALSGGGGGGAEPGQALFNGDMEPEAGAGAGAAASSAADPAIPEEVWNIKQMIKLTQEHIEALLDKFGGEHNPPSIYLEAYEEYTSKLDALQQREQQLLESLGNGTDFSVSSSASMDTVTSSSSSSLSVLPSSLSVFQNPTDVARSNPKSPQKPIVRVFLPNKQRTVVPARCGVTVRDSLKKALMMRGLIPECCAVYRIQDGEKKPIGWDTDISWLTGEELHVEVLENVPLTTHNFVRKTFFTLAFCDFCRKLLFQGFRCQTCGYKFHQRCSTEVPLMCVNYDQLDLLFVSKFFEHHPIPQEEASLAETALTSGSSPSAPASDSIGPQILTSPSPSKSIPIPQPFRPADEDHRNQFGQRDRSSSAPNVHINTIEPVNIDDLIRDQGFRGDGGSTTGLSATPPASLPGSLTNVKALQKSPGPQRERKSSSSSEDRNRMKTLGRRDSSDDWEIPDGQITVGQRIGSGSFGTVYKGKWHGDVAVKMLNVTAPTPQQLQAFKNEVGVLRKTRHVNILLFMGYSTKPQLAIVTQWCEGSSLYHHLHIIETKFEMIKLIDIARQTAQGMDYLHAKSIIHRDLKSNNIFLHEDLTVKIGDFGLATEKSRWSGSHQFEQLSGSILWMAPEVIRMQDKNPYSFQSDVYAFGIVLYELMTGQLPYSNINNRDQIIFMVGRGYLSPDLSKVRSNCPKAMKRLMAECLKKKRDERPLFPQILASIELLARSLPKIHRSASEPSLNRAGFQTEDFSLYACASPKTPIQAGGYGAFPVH
T1 sequence (Q96SW2 whole entry): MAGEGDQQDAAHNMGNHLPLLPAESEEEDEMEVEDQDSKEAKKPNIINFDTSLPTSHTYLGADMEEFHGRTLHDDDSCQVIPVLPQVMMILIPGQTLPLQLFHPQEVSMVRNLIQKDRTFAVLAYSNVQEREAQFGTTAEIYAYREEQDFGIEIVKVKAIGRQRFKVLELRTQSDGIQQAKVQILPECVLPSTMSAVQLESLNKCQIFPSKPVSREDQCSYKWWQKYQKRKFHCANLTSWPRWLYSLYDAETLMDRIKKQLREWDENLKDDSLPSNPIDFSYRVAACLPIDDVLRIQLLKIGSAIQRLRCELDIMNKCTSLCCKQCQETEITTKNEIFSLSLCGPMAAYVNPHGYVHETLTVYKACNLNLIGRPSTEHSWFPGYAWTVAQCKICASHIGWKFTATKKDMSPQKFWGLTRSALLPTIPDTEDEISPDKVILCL
T1 sequence (Q16531 whole entry partner): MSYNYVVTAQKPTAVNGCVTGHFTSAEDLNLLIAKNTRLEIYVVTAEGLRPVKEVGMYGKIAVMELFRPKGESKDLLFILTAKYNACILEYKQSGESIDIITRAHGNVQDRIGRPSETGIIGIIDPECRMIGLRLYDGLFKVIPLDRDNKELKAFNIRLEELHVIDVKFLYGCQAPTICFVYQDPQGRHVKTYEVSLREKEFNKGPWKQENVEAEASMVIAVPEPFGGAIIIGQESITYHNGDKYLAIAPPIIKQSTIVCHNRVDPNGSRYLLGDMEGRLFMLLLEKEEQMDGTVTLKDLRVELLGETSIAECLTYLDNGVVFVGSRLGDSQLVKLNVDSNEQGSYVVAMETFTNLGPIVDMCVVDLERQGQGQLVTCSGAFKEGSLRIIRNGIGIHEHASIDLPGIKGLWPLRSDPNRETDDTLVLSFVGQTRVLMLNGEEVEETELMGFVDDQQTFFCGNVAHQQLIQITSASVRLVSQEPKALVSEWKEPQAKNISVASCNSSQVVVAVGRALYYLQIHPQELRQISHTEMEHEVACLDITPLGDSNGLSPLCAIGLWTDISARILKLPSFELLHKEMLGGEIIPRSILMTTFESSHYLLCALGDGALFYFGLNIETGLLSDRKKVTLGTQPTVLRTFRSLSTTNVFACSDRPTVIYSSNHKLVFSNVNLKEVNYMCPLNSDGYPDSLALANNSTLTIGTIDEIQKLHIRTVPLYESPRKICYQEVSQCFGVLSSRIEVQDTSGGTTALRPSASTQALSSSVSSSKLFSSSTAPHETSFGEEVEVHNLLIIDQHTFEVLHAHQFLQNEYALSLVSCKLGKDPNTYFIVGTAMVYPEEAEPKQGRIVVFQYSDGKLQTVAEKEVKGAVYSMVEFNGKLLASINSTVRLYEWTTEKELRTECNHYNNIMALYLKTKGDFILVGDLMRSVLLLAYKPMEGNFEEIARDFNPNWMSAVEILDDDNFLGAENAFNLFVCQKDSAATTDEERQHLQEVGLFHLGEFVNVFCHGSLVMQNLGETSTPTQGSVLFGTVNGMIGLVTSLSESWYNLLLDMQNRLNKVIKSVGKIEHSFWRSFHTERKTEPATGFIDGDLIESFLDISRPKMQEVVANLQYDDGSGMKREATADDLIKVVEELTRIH
How it was run: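 Endogenous HiBiT knock-in on BRAF V600E in A375 cells (clone A375.10); 11-point half-log series, top 10 μM, 2, 6 or 24 h at 37° C. Lytic HiBiT luminescence, background-subtracted, normalized to DMSO; 4-parameter fit gives DC50, Emax (residual protein) and IP (inflection point).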

[2] = test system: A375-NRAS^Q61K cells; assay: CTGlo Cell Viability Assay, A375-NRAS^Q61K (A375.11) cells, 96 hours; type: cell-based, human; conditions: A375.11 (A375-NRAS^Q61K) cells; for Emax / CTGlo A375.11 96 hours Emax: lowest % viability achieved
How it was run: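 Viability as CellTiter-Glo ATP luminescence after 96 h compound exposure at 37 °C; A375.11 (BRAF V600E/NRAS Q61K) cells at 250/well, top final concentration 10 μM in half-log steps. Signal was background-corrected and set relative to DMSO controls. A 4-parameter logistic fit gave GI50 (50% crossing) and Emax.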

[3] = A375.10 cells, BRAF V600E, 2 hours, inflection point, read-out: HiBiT-Degradation A375.10 BRAF 2 hours IP
[4] = A375.10 cells, BRAF V600E, 2 hours, read-out: HiBiT-Degradation A375.10 BRAF 2 hours DC50
[5] = A375.10 cells, BRAF V600E, 2 hours, residual protein remaining, read-out: HiBiT-Degradation A375.10 BRAF 2 hours Emax
[6] = A375.10 cells, BRAF V600E, 2 hours, residual protein remaining
[7] = A375.10 cells, HiBiT, BRAF V600E, 24 hours, read-out: HiBiT-Degradation A375.10 BRAF 24 hours DC50
[8] = A375.10 cells, HiBiT, BRAF V600E, 24 hours, read-out: HiBiT-Degradation A375.10 BRAF 24 hours Emax
[9] = A375.10 cells, HiBiT, BRAF V600E, 24 hours, read-out: HiBiT-Degradation A375.10 BRAF 24 hours IP

Compound | DC50 [1, 3] [nM] | DC50 [1, 4] [nM] | Emax [1, 5] [%] | GI50 [2] [nM] | Emax ([2]; Homo sapiens, 96 h) [%] | HiBiT-Degradation A375.10 BRAF 2 hours Emax [1, 6] | CTGlo A375.11 96 hours Emax [2] | GI50 ([2]; Homo sapiens, 96 h) [nM] | DC50 [1, 7] [nM] | Emax [1, 8] [%] | DC50 [1, 9] [nM] | Emax ([1]; read-out: HiBiT-Degradation A375.10 BRAF 2 hours Emax, A375.10 cells, BRAF V600E, 2 hours, residual protein remaining) [%] | HiBiT-Degradation A375.10 BRAF 2 hours Emax [1]
CCN(C)S(=O)(=O)Nc1ccc(F)c(Oc2ccc3ncc(OCC4(O)CCN(C5CCC(c6cc7c(cc6F)c(N6CCC(=O)NC6=O)nn7C)CC5)CC4)nc3c2)c1C#N (single isomer, unassigned) [Compound 195, 7-[2-cyano-3-[[ethyl(methyl)sulfamoyl]amino]-6-fluoro-phenoxy]-2-[[1-[4-[3-(2,4-dioxohexahydropyrimidin-1-yl)-5-fluoro-1-methyl-indazol-6-yl]cyclohexyl]-4-hydroxy-4-piperidyl]methoxy]quinoxaline] | < 1000 | > 10000 | 50 to 90 | > 10000 | < 50 |  |  |  |  |  |  |  | 
CCN(C)S(=O)(=O)Nc1ccc(F)c(Oc2ccc3ncc(OCC4(O)CCN(C5CCC(c6cc7c(cc6F)c(N6CCC(=O)NC6=O)nn7C)CC5)CC4)nc3c2)c1C#N (single isomer, unassigned) [Compound 196, 7-[2-cyano-3-[[ethyl(methyl)sulfamoyl]amino]-6-fluoro-phenoxy]-2-[[1-[4-[3-(2,4-dioxohexahydropyrimidin-1-yl)-5-fluoro-1-methyl-indazol-6-yl]cyclohexyl]-4-hydroxy-4-piperidyl]methoxy]quinoxaline] | < 1000 | < 1000 |  | < 1000 |  | *** (<=50%) | ** (<90% and >50%) |  |  |  |  |  | 
CCN(C)S(=O)(=O)Nc1ccc(F)c(C(=O)c2ccc3ncn(C4CC5(CCN(C6CCC(c7ccc(NC8CCC(=O)NC8=O)cc7F)CC6)CC5)C4)c(=O)c3c2)c1F (single isomer, unassigned) [Compound 199, 3-[7-[4-[4-[(2,6-dioxo-3-piperidyl)amino]-2-fluoro-phenyl]cyclohexyl]-7-azaspiro[3.5]nonan-2-yl]-6-[3-[[ethyl(methyl)sulfamoyl]amino]-2,6-difluoro-benzoyl]-4-oxo-quinazoline] | < 1000 | < 1000 | < 50 |  | 50 to 90 |  |  | 1000 to 10000 |  |  |  |  | 
CCN(C)S(=O)(=O)Nc1ccc(F)c(C(=O)c2ccc3ncn(C4CC5(CCN(C6CCC(c7ccc(NC8CCC(=O)NC8=O)cc7F)CC6)CC5)C4)c(=O)c3c2)c1F (single isomer, unassigned) [Compound 200, 3-[7-[4-[4-[(2,6-dioxo-3-piperidyl)amino]-2-fluoro-phenyl]cyclohexyl]-7-azaspiro[3.5]nonan-2-yl]-6-[3-[[ethyl(methyl)sulfamoyl]amino]-2,6-difluoro-benzoyl]-4-oxo-quinazoline] | < 1000 | < 1000 |  | 1000 to 10000 |  | *** (<=50%) | ** (<90% and >50%) |  |  |  |  |  | 
CCN(C)S(=O)(=O)Nc1ccc(F)c(Oc2ccc3ncn(CC4(F)CCN(C5CCC(c6cc7c(cc6F)c(N6CCC(=O)NC6=O)nn7C)CC5)CC4)c(=O)c3c2)c1C#N (single isomer, unassigned) [Compound 201, 6-[2-cyano-3-[[ethyl(methyl)sulfamoyl]amino]-6-fluoro-phenoxy]-3-[[1-[4-[3-(2,4-dioxohexahydropyrimidin-1-yl)-5-fluoro-1-methyl-indazol-6-yl]cyclohexyl]-4-fluoro-4-piperidyl]methyl]-4-oxo-quinazoline] | < 1000 | < 1000 | < 50 |  | 50 to 90 |  |  | 1000 to 10000 |  |  |  |  | 
CCN(C)S(=O)(=O)Nc1ccc(F)c(Oc2ccc3ncn(C4CC5(C4)CN(C4CCC(c6cc7c(cc6F)c(N6CCC(=O)NC6=O)nn7C)CC4)C5)c(=O)c3c2)c1C#N (single isomer, unassigned) [Compound 203, 6-[2-cyano-3-[[ethyl(methyl)sulfamoyl]amino]-6-fluoro-phenoxy]-3-[2-[4-[3-(2,4-dioxohexahydropyrimidin-1-yl)-5-fluoro-1-methyl-indazol-6-yl]cyclohexyl]-2-azaspiro[3.3]heptan-6-yl]-4-oxo-quinazoline] | < 1000 | < 1000 |  | > 10000 | 50 to 90 |  |  |  | < 1000 | < 50 | < 1000 | < 50 | 
CCN(C)S(=O)(=O)Nc1ccc(F)c(Oc2ccc3ncn(C4CC5(CCN(C6CCC(c7cc8c(cc7F)c(N7CCC(=O)NC7=O)nn8C)CC6)C5)C4)c(=O)c3c2)c1C#N (single isomer, unassigned) [Compound 205, 6-[2-cyano-3-[[ethyl(methyl)sulfamoyl]amino]-6-fluoro-phenoxy]-3-[6-[4-[3-(2,4-dioxohexahydropyrimidin-1-yl)-5-fluoro-1-methyl-indazol-6-yl]cyclohexyl]-6-azaspiro[3.4]octan-2-yl]-4-oxo-quinazoline] | < 1000 | > 10000 |  | > 10000 | 50 to 90 | ** (<90% and >50%) |  |  |  |  |  |  | 
CCN(C)S(=O)(=O)Nc1ccc(F)c(Oc2ccc3ncn(C4CC5(CCN(C6CCC(c7cc8c(cc7F)c(N7CCC(=O)NC7=O)nn8C)CC6)C5)C4)c(=O)c3c2)c1C#N (single isomer, unassigned) [Compound 206, 6-[2-cyano-3-[[ethyl(methyl)sulfamoyl]amino]-6-fluoro-phenoxy]-3-[6-[4-[3-(2,4-dioxohexahydropyrimidin-1-yl)-5-fluoro-1-methyl-indazol-6-yl]cyclohexyl]-6-azaspiro[3.4]octan-2-yl]-4-oxo-quinazoline] | < 1000 | < 1000 | < 50 | < 1000 |  |  | ** (<90% and >50%) |  | < 1000 | < 50 | < 1000 |  | 
CN(CCO)S(=O)(=O)Nc1ccc(F)c(Oc2ccc3ncn([C@H]4COC5(CCC(N6CCC(c7cc8c(cc7F)c(N7CCC(=O)NC7=O)nn8C)C(F)(F)C6)CC5)C4)c(=O)c3c2)c1C#N (single isomer, unassigned) [Compound 212] | < 1000 | < 1000 | < 50 |  | 50 to 90 |  |  | < 1000 |  |  |  |  | 
CN(CCO)S(=O)(=O)Nc1ccc(F)c(Oc2ccc3ncn([C@H]4COC5(CCC(N6CCC(c7cc8c(cc7F)c(N7CCC(=O)NC7=O)nn8C)C(F)(F)C6)CC5)C4)c(=O)c3c2)c1C#N (single isomer, unassigned) [Compound 214] | < 1000 | < 1000 |  | < 1000 |  | *** (<=50%) | *** (<=50%) |  |  |  |  |  | 
CCN(C)S(=O)(=O)Nc1ccc(F)c(Oc2ccc3ncc(OC4CC5(CCN(C6CCC(c7cc8c(cc7F)c(N7CCC(=O)NC7=O)nn8C)CC6)CC5)C4)nc3c2)c1C#N (single isomer, unassigned) [Compound 219, 7-[2-cyano-3-[[ethyl(methyl)sulfamoyl]amino]-6-fluoro-phenoxy]-2-[[7-[4-[3-(2,4-dioxohexahydropyrimidin-1-yl)-5-fluoro-1-methyl-indazol-6-yl]cyclohexyl]-7-azaspiro[3.5]nonan-2-yl]oxy]quinoxaline] | < 1000 | < 1000 |  | > 10000 |  |  | *** (<=50%) |  |  |  |  |  | ** (<90% and >50%)
CCN(C)S(=O)(=O)Nc1ccc(F)c(Oc2ccc3ncn(C4CCC(N5CC6(CCN(c7cc8c(cc7F)c(N7CCC(=O)NC7=O)nn8C)CC6)C5)CC4)c(=O)c3c2)c1C#N (single isomer, unassigned) [Compound 221, 6-[2-cyano-3-[[ethyl(methyl)sulfamoyl]amino]-6-fluoro-phenoxy]-3-[4-[7-[3-(2,4-dioxohexahydropyrimidin-1-yl)-5-fluoro-1-methyl-indazol-6-yl]-2,7-diazaspiro[3.5]nonan-2-yl]cyclohexyl]-4-oxo-quinazoline] | < 1000 | < 1000 | < 50 |  | 50 to 90 |  |  | 1000 to 10000 |  |  |  |  | 
CCN(C)S(=O)(=O)Nc1ccc(F)c(Oc2ccc3ncn(C4CCC(N5CC6(CCN(c7cc8c(cc7F)c(N7CCC(=O)NC7=O)nn8C)CC6)C5)CC4)c(=O)c3c2)c1C#N (single isomer, unassigned) [Compound 222, 6-[2-cyano-3-[[ethyl(methyl)sulfamoyl]amino]-6-fluoro-phenoxy]-3-[4-[7-[3-(2,4-dioxohexahydropyrimidin-1-yl)-5-fluoro-1-methyl-indazol-6-yl]-2,7-diazaspiro[3.5]nonan-2-yl]cyclohexyl]-4-oxo-quinazoline] | < 1000 | < 1000 |  | < 1000 |  | *** (<=50%) | ** (<90% and >50%) |  |  |  |  |  | 
